Structures are written as SMILES.

The target of the first assay is T1, active p38 alpha enzyme (Upstate Biotechnology) (Homo sapiens, UniProt Q16539).
T1 construct: purchased Upstate Biotechnology
T1 sequence (Q16539 whole entry): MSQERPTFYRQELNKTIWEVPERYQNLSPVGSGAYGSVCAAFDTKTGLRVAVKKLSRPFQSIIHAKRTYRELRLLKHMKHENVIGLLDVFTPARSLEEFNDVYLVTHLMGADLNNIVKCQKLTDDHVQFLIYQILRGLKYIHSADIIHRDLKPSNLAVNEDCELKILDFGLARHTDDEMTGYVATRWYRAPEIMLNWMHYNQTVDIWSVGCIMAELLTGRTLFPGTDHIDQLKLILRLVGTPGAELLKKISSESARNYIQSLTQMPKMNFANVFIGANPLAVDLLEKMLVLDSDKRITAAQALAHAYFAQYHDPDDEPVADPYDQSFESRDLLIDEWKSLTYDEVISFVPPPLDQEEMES
The assay is described as follows: p38α biochemical assay (ATP turnover, luminescent detection, Cambrex PKlight). The conditions noted are these: p38α biochemical assay, Table 1 Biological Activity. The essentials: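 Measures total ATP turnover by luminescence after human p38α phosphorylates full MapkapK2 protein. Final ATP is 1.4 uM, and incubation runs 2 hours at 30C. The buffer includes 100 mM MgCl2, 4 mM CaCl2 and 1 mg/ml BSA.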
As to `CC(C)NC(=O)c1csc(-c2oc(CNC(=O)C(F)(F)F)nc2-c2ccc(F)cc2)n1` [Example 108], the IC50 is ≤ 1 µM.
For `CC(C)NC(=O)c1csc(-c2oc(CNC(=O)c3ccccc3C=O)nc2-c2ccc(F)cc2)n1` [Example 132], the IC50 is > 1 µM.
Turning to `CC(C)NC(=O)c1csc(-c2c(-c3ccc(F)cc3)noc2CNC(=O)c2cnc[nH]2)n1` [Example 580], the IC50 was > 1 µM.
On the same count and under the same terms, then `CC(C)NC(=O)c1csc(-c2c(-c3ccc(F)cc3)noc2CNC(=O)c2cc(Cl)ccc2Cl)n1` [Example 728], with > 1 µM; and `CC(C)NC(=O)c1csc(-c2oc(CN3CCN(C(=O)c4cnc[nH]4)CC3)nc2-c2ccc(F)cc2)n1` [Example 342], with ≤ 1 µM.
On the same count and under the same terms, then `CCCc1ccc(C(=O)N2CCN(Cc3nc(-c4ccc(F)cc4)c(-c4nc(C(=O)NC(C)C)cs4)o3)CC2)cc1` [Example 413], with > 1 µM; and `COc1ccc(Br)c(C(=O)NCc2nc(-c3ccc(F)cc3)c(-c3nc(C(=O)NC(C)C)cs3)o2)c1` [Example 316], with ≤ 1 µM; and `CC(C)NC(=O)c1csc(-c2oc(CNC(=O)c3ccc(Br)cc3)nc2-c2ccc(F)cc2)n1` [Example 269], with > 1 µM.
The same measure, in the same setting: then `CC(=O)Oc1ccc(C(=O)NCc2onc(-c3ccc(F)cc3)c2-c2nc(C(=O)NC(C)C)cs2)cc1` [Example 688], with > 1 µM; and `CC(C)NC(=O)c1csc(-c2oc(CNC(=O)c3cccc(F)c3F)nc2-c2ccc(F)cc2)n1` [Example 158], with ≤ 1 µM.
As for `CC(C)NC(=O)c1csc(-c2oc(CNC(=O)c3ccc(Oc4ccccc4)cc3)nc2-c2ccc(F)cc2)n1` [Example 290], the IC50 was > 1 µM.
For the molecule `CC(C)NC(=O)c1csc(-c2c(-c3ccc(F)cc3)noc2CNC(=O)c2cc(Cl)ccn2)n1` [Example 630], the IC50 is > 1 µM.
As for `CC(C)NC(=O)c1csc(-c2c(-c3ccc(F)cc3)noc2CNC(=O)C(NC(=O)OC(C)(C)C)C(C)C)n1` (stereo not drawn) [Example 774], the IC50 was > 1 µM.
Same read-out and setting: for `CCCCOc1ccc(C(=O)NCc2nc(-c3ccc(F)cc3)c(-c3nc(C(=O)NC(C)C)cs3)o2)cc1` [Example 263] the value was > 1 µM; for `CC(C)NC(=O)c1csc(-c2c(-c3ccc(F)cc3)noc2CNC(=O)/C=C/c2ccccc2O)n1` [Example 641], > 1 µM; for `COc1ccc(Cl)cc1C(=O)N1CCN(Cc2nc(-c3ccc(F)cc3)c(-c3nc(C(=O)NC(C)C)cs3)o2)CC1` [Example 475], > 1 µM.
The same measure, in the same setting: then `CC(C)NC(=O)c1csc(-c2c(-c3ccc(F)cc3)noc2CNC(=O)/C=C/c2ccc3c(c2)OCO3)n1` [Example 730], with > 1 µM; and `CC(C)NC(=O)c1csc(-c2oc(CN3CCN(C(=O)c4cc(Cl)ccc4[N+](=O)[O-])CC3)nc2-c2ccc(F)cc2)n1` [Example 512], with > 1 µM.
Still for that read-out and setting: for `CC(=O)c1ccc(C(=O)NCc2nc(-c3ccc(F)cc3)c(-c3nc(C(=O)NC(C)C)cs3)o2)cc1` [Example 167] the value was ≤ 1 µM; for `CC(C)NC(=O)c1csc(-c2oc(CN3CCN(C(=O)c4cc(O)c(O)c(O)c4)CC3)nc2-c2ccc(F)cc2)n1` [Example 427], ≤ 1 µM.
For `COc1cccc(C(=O)NCc2onc(-c3ccc(F)cc3)c2-c2nc(C(=O)NC(C)C)cs2)c1OC` [Example 703], the IC50 is > 1 µM.
The same measure, in the same setting: then `CC(C)NC(=O)c1csc(-c2oc(CNC(=O)c3cccc(C#N)c3)nc2-c2ccc(F)cc2)n1` [Example 130], with ≤ 1 µM.
The same measure, in the same setting: then `CC(C)NC(=O)c1csc(-c2c(-c3ccc(F)cc3)noc2CNC(=O)c2cc(F)c(F)cc2Cl)n1` [Example 733], with > 1 µM; and `Cc1ccc(C(=O)NCc2onc(-c3ccc(F)cc3)c2-c2nc(C(=O)NC(C)C)cs2)cc1F` [Example 624], with > 1 µM.

The assay is the same for the next values; noted with them: p38α kinase; Table 1 Biological Activity.
In the case of `CC(C)NC(=O)c1csc(-c2oc(CNCc3ccc(Cl)cc3)nc2-c2ccc(F)cc2)n1` [Example 1132], the IC50 was > 1 µM.
Take `COc1cccc(NC(=O)c2csc(-c3sc(C)nc3-c3ccc(F)cc3)n2)c1` [Example 1972]: the IC50 is > 1 µM.
On the same count and under the same terms, for `CC(C)NC(=O)c1csc(-c2oc(CNc3ccc(C(F)(F)F)cc3C(F)(F)F)nc2-c2ccc(F)cc2)n1` [Example 1374] the value was > 1 µM; for `COc1ccc(NC(=O)c2csc(-c3sc(C)nc3-c3ccc(F)cc3)n2)cc1` [Example 1973], > 1 µM; for `Cc1ccc(NC(=O)c2csc(-c3sc(C)nc3-c3ccc(F)cc3)n2)c(C)c1` [Example 1970], > 1 µM.
`COc1ccccc1CNCc1nc(-c2ccc(F)cc2)c(-c2nc(C(=O)NC(C)C)cs2)o1` [Example 1124]: the IC50 is > 1 µM.
In the case of `C#CCN(C)Cc1onc(-c2ccc(F)cc2)c1-c1nc(C(=O)NC(C)C)cs1` [Example 1512], the IC50 is > 1 µM.
On to `Cc1nc(-c2ccc(F)cc2)c(-c2nc(C(=O)NC(C)CCCC(C)C)cs2)s1` (stereo not drawn) [Example 1764], for which the IC50 is > 1 µM.
Turning to `CCOc1ccccc1NCc1nc(-c2ccc(F)cc2)c(-c2nc(C(=O)NC(C)C)cs2)o1` [Example 1342], the IC50 was > 1 µM.
On the same count and under the same terms, then `CC(C)NC(=O)c1csc(-c2oc(CNc3cccc(C(F)(F)F)c3)nc2-c2ccc(F)cc2)n1` [Example 1356], with > 1 µM.
For `O=C(NCc1ccc(C(F)(F)F)cc1)c1csc(-c2c(-c3ccc(F)cc3)n[nH]c2C2CCNCC2)n1` [Example 2143], the IC50 was > 1 µM.
Still for that read-out and setting: for `CC(C)NC(=O)c1csc(-c2oc(CN3CCSC3)nc2-c2ccc(F)cc2)n1` [Example 1196] the value was > 1 µM; for `CC(C)NC(=O)c1csc(-c2oc(CN3CCC[C@@H]3CO)nc2-c2ccc(F)cc2)n1` [Example 1201], > 1 µM.
In the case of `CC(C)NC(=O)c1csc(-c2c(-c3ccc(F)cc3)n[nH]c2C2CCN(C(=O)c3cc4ccccc4cc3O)CC2)n1` [Example 958], the IC50 was > 1 µM.
Same read-out and setting: then `CC(C)NC(=O)c1csc(-c2c(-c3ccc(F)cc3)n[nH]c2C2CCN(C(=O)c3ccc(F)cc3F)CC2)n1` [Example 873], with > 1 µM.
Take `COc1cc(CNCc2onc(-c3ccc(F)cc3)c2-c2nc(C(=O)NC(C)C)cs2)cc(OC)c1` [Example 1489]: the IC50 is > 1 µM.
Still for that read-out and setting: for `CCCC(C)NCc1nc(-c2ccc(F)cc2)c(-c2nc(C(=O)NC(C)C)cs2)o1` (stereo not drawn) [Example 1067] the value was > 1 µM.
The same measure, in the same setting: then `CC(C)NC(=O)c1csc(-c2c(-c3ccc(F)cc3)n[nH]c2C2CCN(C(=O)C3=CC=CC(Cl)C=C3[N+](=O)[O-])CC2)n1` (stereo not drawn) [Example 987], with > 1 µM.
With `Cc1ccccc1CC(=O)N1CCC(c2[nH]nc(-c3ccc(F)cc3)c2-c2nc(C(=O)NC(C)C)cs2)CC1` [Example 849], the IC50 was > 1 µM.
Still for that read-out and setting: then `CC(C)NC(=O)c1csc(-c2c(-c3ccc(F)cc3)noc2CNc2ccc3ncsc3c2)n1` [Example 1674], with > 1 µM; and `C#CCN(C)Cc1nc(-c2ccc(F)cc2)c(-c2nc(C(=O)NC(C)C)cs2)o1` [Example 1187], with > 1 µM; and `CCN(CC)CCNC(=O)c1csc(-c2c(-c3ccc(F)cc3)n[nH]c2C2CCNCC2)n1` [Example 2072], with > 1 µM.
As for `CC(C)NC(=O)c1csc(-c2c(-c3ccc(F)cc3)noc2CNc2cc(Cl)c(Cl)c(Cl)c2)n1` [Example 1692], the IC50 is > 1 µM.
The same measure, in the same setting: for `Cc1ccccc1NCc1onc(-c2ccc(F)cc2)c1-c1nc(C(=O)NC(C)C)cs1` [Example 1633] the value was > 1 µM; for `CCCCOc1ccc(C(=O)N2CCC(c3[nH]nc(-c4ccc(F)cc4)c3-c3nc(C(=O)NC(C)C)cs3)CC2)cc1` [Example 977], ≤ 1 µM.
As for `COc1ccc(C(=O)N2CCC(c3[nH]nc(-c4ccc(F)cc4)c3-c3nc(C(=O)NC(C)C)cs3)CC2)c(O)c1` [Example 902], the IC50 was > 1 µM.
Still for that read-out and setting: for `CC(C)NC(=O)c1csc(-c2c(-c3ccc(F)cc3)c(=O)[nH]n2C2CCN(C(=O)OCc3ccccc3)CC2)n1` [Example 2183, 4-|4-(4-Fluoro-phenyl)-5-(4-isopropylcarbamoyl-thiazol-2-yl)-3-oxo-2,3-dihydro-pyrazol-1-yl|-piperidine-1-carboxylic acid benzyl ester] the value was > 1 µM; for `CN(C)c1ccc(CNC(=O)c2csc(-c3c(-c4ccc(F)cc4)n[nH]c3C3CCNCC3)n2)cc1` [Example 2149], > 1 µM.
Same read-out and setting: then `CC(C)NC(=O)c1csc(-c2c(-c3ccc(F)cc3)noc2CN2CCCC(C(N)=O)C2)n1` (stereo not drawn) [Example 1547], with > 1 µM; and `CCCNCc1onc(-c2ccc(F)cc2)c1-c1nc(C(=O)NC(C)C)cs1` [Example 1388], with > 1 µM.
With `CC(C)Cc1ccc(C(C)C(=O)N2CCC(c3[nH]nc(-c4ccc(F)cc4)c3-c3nc(C(=O)NC(C)C)cs3)CC2)cc1` (stereo not drawn) [Example 994], the IC50 was > 1 µM.
The same measure, in the same setting: for `CC(C)NC(=O)c1csc(-c2c(-c3ccc(F)cc3)n[nH]c2C2CCN(C(=O)c3ccncc3)CC2)n1` [Example 2178, 2-{3-(4-Fluoro-phenyl)-5-|1-(pyridine-4-carbonyl)-piperidin-4-yl|-1H-pyrazol-4-yl}-thiazole-4-carboxylic acid isopropylamide] the value was ≤ 1 µM; for `CC(C)NC(=O)c1csc(-c2oc(CNc3ccccc3COc3ccccc3)nc2-c2ccc(F)cc2)n1` [Example 1369], > 1 µM.
On the same count and under the same terms, for `CC(C)NC(=O)c1csc(-c2oc(CNCCc3ccc(F)cc3)nc2-c2ccc(F)cc2)n1` [Example 1127] the value was > 1 µM.
The same measure, in the same setting: for `CC(C)NC(=O)c1csc(-c2c(-c3ccc(F)cc3)n[nH]c2C2CCN(C(=O)c3ncc[nH]3)CC2)n1` [Example 2175, 2-{3-(4-Fluoro-phenyl)-5-|1-(1H-imidazole-2-carbonyl)-piperidin-4-yl|-1H-pyrazol-4-yl}-thiazole-4-carboxylic acid isopropylamide] the value was ≤ 1 µM; for `Cc1nc(-c2ccc(F)cc2)c(-c2nc(C(=O)N3CCN(CC4CCCCC4)CC3)cs2)s1` [Example 1906], > 1 µM.

A word on the IC50: it is the concentration that gives 50% inhibition. A high value points to a need for much substance.

These data come from patent US20060252807A1, “Novel ortho-terphenyl inhibitors of p38 kinase and methods of treating inflammatory disorders” (Kalypsys, Inc., priority 2005, published 2006).
